Earlier results on one molecule are cited in patent US20250025455A1, “CONTROLLED-RELEASE NICOTINE CHEWING GUM” (Altria Client Services LLC, priority 2023, published 2025).

The conditions of this data set: free base (non-protonated) nicotine.

Regarding `CN1CCCC1c1cccnc1` (stereo not shown) [Free-base nicotine, 3-(1-methyl-2-pyrrolidinyl) pyridine], the pKa value entry is reported as “about 8”.
